Experimental data from patent publication US11541063B2, “Compositions and products for use in the treatment of bone fractures and defects” (priority 2014, dated 2023).
Read-outs that look alike come from different tables or passages of the source.

Tested on: MC3T3-E1 cells
Conditions: alendronate only (0 nM Stanolone), MC3T3 cells stimulated for 10 days
Description: MC3T3-E1 (ECACC, Acc. No. 99072810) were cultured in α-MEM (Invitrogen, Carlsbad, Calif.) supplemented with 100 U/ml penicillin, 100 ug/ml streptomycin (Invitrogen, Carlsbad, Calif.) and 5% fetal bovine serum (Hyclone, GE Healthcare). Cells were grown under standard conditions (37° C., 5% CO2 and 95% humidity). MC3T3-E1 cells were seeded at a density of 26000 cells/cm2 and seeding of the cells was considered as the day 0 timepoint. On day 1 post-plating, the medium of the MC3T3-E1 cells was replaced with osteogenic medium (the above-mentioned media supplemented with 50 μg/ml Ascorbic Acid (Sigma)), 10 nM β-glycerol phosphate (Sigma) and on day 3 post-plating, hormones or vehicle (0.1% ethanol) were added.
Cells were lysed for 10 minutes with lysisbuffer (100 mM Potassium phosphate, 0.2% Triton X-100, pH 7.8 containing protease inhibitor cocktail (Roche)). […] The luminescence (1 second) was measured with a Filtermax F5 (Molecular Devices).
The acidic phosphatase activity of the cells was determined by adding freshly prepared p-NPP buffer (4-nitrophenyl phosphate (Sigma) in 0.1 M NaAc+0.1% Triton X-100, pH5.5) to the cell lysates and incubated for 1.5 hrs at 37° C. and 5% CO2. […] The absorbance was measured at 405 nm with a Filtermax F5 (Molecular Devices). […]

With `NCCCC(O)(P(=O)(O)O)P(=O)(O)O` [alendronate] the ALP/AP activity (50 μM) was “decreases” and the ALP/AP activity (2 and 10 μM) was “small increase”.
